Measured values taken from ChEMBL document CHEMBL1201862, “PubChem BioAssay data set” (2004).
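1) Cells in 96-well plates. 2) Compound, 48 h, 5 concentrations. 3) Linear interpolation between surrounding doses. 4) Unreached endpoint = highest concentration. GI50 is the concentration that inhibits growth by half.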 The source made the active and inactive calls. No stated cut-off is given here; in the data, active = GI50 up to about 1.1 µM and inactive = higher.

Assays:
Assay in all cases: DTP human tumour cell line panel, 48 h
[1] = test system: IGROV-1
[2] = test system: DLD-1
[3] = test system: CAKI-1
[4] = test system: HCT-116
[5] = test system: U-251
[6] = test system: 786-0
[7] = test system: A498
[8] = test system: OVCAR-4
[9] = test system: UACC-62
[10] = test system: SW-620
[11] = test system: K562
[12] = test system: MDA-MB-435
[13] = test system: COLO 205
[14] = test system: SR
[15] = test system: BT-549
[16] = test system: KM-20L2
[17] = test system: SN12C
[18] = test system: EKVX
[19] = test system: NCI-H460
[20] = test system: A549

| SMILES | GI50 [1] | GI50 [2] | GI50 [3] | GI50 [4] | GI50 [5] | GI50 [6] | GI50 [7] | GI50 [8] | GI50 [9] | GI50 [10] | GI50 [11] | GI50 [12] | GI50 [13] | GI50 [14] | GI50 [15] | GI50 [16] | GI50 [17] | GI50 [18] | GI50 [19] | GI50 [20] |
| --- | --- | --- | --- | --- | --- | --- | --- | --- | --- | --- | --- | --- | --- | --- | --- | --- | --- | --- | --- | --- |
| COc1cc2c(c(OC)c1OC)-c1ccc(OC)c(=O)cc1C(NC(=O)c1ccc(N=[N+]=[N-])cc1)CC2 (stereo unspecified) | 0.0466 µM (active) | 0.0413 µM (active) | 0.032 µM (active) | 0.0334 µM (active) | 0.0307 µM (active) | 0.0446 µM (active) | 0.0186 µM (active) | 1.24 µM (inactive) | 0.0275 µM (active) | 0.0312 µM (active) | 0.0246 µM (active) | 0.0134 µM (active) | 0.021 µM (active) | 0.0435 µM (active) | 0.0507 µM (active) | 0.0188 µM (active) | 0.0514 µM (active) | 0.132 µM (active) | 0.031 µM (active) | 0.0408 µM (active) |
| CCOC(=O)c1nc(C)oc1C(F)(F)F | > 100 µM (inactive) | > 100 µM (inactive) | > 100 µM (inactive) | > 100 µM (inactive) | > 100 µM (inactive) | > 100 µM (inactive) | > 100 µM (inactive) | > 100 µM (inactive) | > 100 µM (inactive) | > 100 µM (inactive) | > 100 µM (inactive) | – | > 100 µM (inactive) | > 100 µM (inactive) | – | > 100 µM (inactive) | > 100 µM (inactive) | > 100 µM (inactive) | > 100 µM (inactive) | > 100 µM (inactive) |
| CC(C)/C=C1\CCC(CN(C)C)C1=O (stereo unspecified) | 7.05 µM (inactive) | 1.67 µM (inactive) | 1.32 µM (inactive) | 0.871 µM (active) | 18.3 µM (inactive) | 0.632 µM (active) | 6.87 µM (inactive) | 7.35 µM (inactive) | 16.8 µM (inactive) | 0.656 µM (active) | 0.893 µM (active) | 1.6 µM (inactive) | 0.586 µM (active) | 0.951 µM (active) | 3.17 µM (inactive) | 9.75 µM (inactive) | 2.21 µM (inactive) | 7.1 µM (inactive) | 18.9 µM (inactive) | 8.57 µM (inactive) |
| O=C(Nc1ccn(CCI)c(=O)n1)c1ccccc1 | > 100 µM (inactive) | > 100 µM (inactive) | > 100 µM (inactive) | > 100 µM (inactive) | > 100 µM (inactive) | > 100 µM (inactive) | > 100 µM (inactive) | > 100 µM (inactive) | > 100 µM (inactive) | > 100 µM (inactive) | > 100 µM (inactive) | – | > 100 µM (inactive) | > 100 µM (inactive) | – | > 100 µM (inactive) | > 100 µM (inactive) | > 100 µM (inactive) | > 100 µM (inactive) | > 100 µM (inactive) |
